Laboratory results from patent US12576059B2, “Methods and compositions for treatment of inflammatory disease” (priority 2021, dated 2026).
“Also recorded” adds a separate entry of the source.

Legend:
[1] = system: LPS-induced acute lung injury; assay: Example 5: response to intranasal LPS in mice fed AA diets (ALI model); format: in vivo, BALB/c and C57BL/6 mice; conditions: for LPS-induced perivascular edema as measured by alveolar wall thickness: 6 weeks diet, versus H-AA
Experimental: Mouse diet was from Research Diets (New Brunswick, NJ) based on fat-free AIN-93G. Fat was added at 11.3% by weight total fat and 0.25% either normal H-AA or D-AA respectively (Table 5).
Male and Female BALB/c and C57BL/6 mice were provided with standard environmental conditions i.e., 22±1° C., 55±5% humidity and 12 h light/dark cycle with free food and water access. At the age of six weeks, animals were split into 8 groups (n=160 total, 20 of each gender) and were continuously fed ad libitum on the diet containing either H-AA or D-AA for 2, 4, 6 or 8 weeks at the daily rate of ca. 5 g of diet per mouse for the duration of the study. The other two groups of animals (n=40, 20 of each gender) received neither PUFA-enriched diets nor LPS served as controls. The body weight and food intake were measured once a week. After completing the appropriate diet course, half of the mice in each group (10 females and 10 males) (i) underwent the procedure of bronchoalveolar lavage (BAL) to accomplish cytological smears, (ii) were subjected to tissue harvesting and collection of colon contents (after humane euthanasia with lethal dose of sodium thiopental, 100 mg/kg intravenously). On the ninth week of this diet course, the other half of the group was administered 1 mg/kg of intranasal (IN) LPS from Escherichia coli O111:B4 (Sigma Aldrich) 24 hours prior to BAL and subsequent euthanasia. 40 D-AA fed animals (20 males, 20 females) were switched to the H-AA diet for washout experiments.
Cell differential counts were performed on smear slides from resuspended cell pellets of BAL, using commercially available May-Grünwald-Giemsa staining kits. All slides were evaluated in a light microscope (Optec BK5000) at ×200 magnification. These cell counts such as lymphocytes, neutrophils, plasmacytes and macrophages were obtained from 10 fields of each slide.
Lung, stomach and colon samples were fixed with 4% formaldehyde (freshly prepared from paraformaldehyde), paraffin embedded and cut into 2-4 μm sections. For routine histology, all fixed tissue sections were stained with hematoxylin-eosin (H&E). All slides were evaluated at 10 fields each using a Genetic Pro Bino light microscope (A) and photographed with a digital camera (Delta Optical). Stomach and colon tissue sections were analyzed for signs of active and chronic inflammation, formation of lymph follicles, and hyperplasia of epithelial cells. The severity of lung injury was scored according to lung pathological changes, including interalveolar and perivascular hemorrhages, peri-vascular and peribronchial infiltration, perivascular edema, thickness of alveolar wall, alveolar space value, and emphysematous transformations. Lung tissue samples were additionally stained with commercially available Martius Scarlet Blue (MSB) stain kit (Avantik, USA) for fibrin visualization. The presence of homogeneous fibrin masses of yellow, pink or red color in the lung blood vessels were interpreted as thrombotic masses.
We challenged mice fed AA-diets for 6 weeks using LPS treatment. […] Perivascular edema, signs of thrombosis, alveolar wall thickening, irregular distribution of air spaces, and focal areas of alveolar hemorrhage were also observed. We preferred intranasal administration to the more extreme intratracheal route that induces IL-1β which in turn amplifies inflammation making it difficult to distinguish between the early and late consequences of the LPS challenge. Indeed, 24 hours after intranasal administration of LPS at a dose of 1 mg/kg, there was no significant increase in the IL-1B content in BAL fluid or colon homogenates compared to animals not treated with LPS regardless of type or duration of the diets. Intranasal LPS 24 hours post administration increased neutrophils in BAL fluid in all treated groups regardless of gender or form of AA diets.

[2] = system: LPS induced acute lung inflammation; assay: Example 1a: mouse model of lung inflammation (FIGS. 3-6, Table 4); format: in vivo, mice; conditions: for Alveolar lumen area (25%; 75%) / Partition thickness Me (25%; 75%): + LPS, median; for protective / therapeutic effect compared to other deuterated PUFAs: preliminary data (not shown)
Experimental: FIGS. 3-6 Groups of female (f) and male (m) mice received a 6-week course of dietary (H) AA or a 6-week course of deuterated arachidonic acid (D6-ARA, 15 mg/day) followed by single intranasal administration of LPS.
LPS treatment promotes inflammation through various mechanisms including secretion of pro-inflammatory cytokines, eicosanoids and induction of ROS. Following induction by the intranasal administration of LPS, an acute lung inflammation quickly follows. […] Such a pronounced inflammatory infiltration of the interalveolar septa contributed to their destruction and more frequent formation of emphysema foci in this group. […] (See FIGS. 3-6.)
The degree of alveolar lumen area changes in both groups of animals depended on gender. […]

[3] = system: LPS induced acute lung inflammation; assay: Example 1: LPS induced acute lung inflammation, interalveolar septa distance; format: in vivo, mice
Source text: LPS administration is known to promote inflammation through various mechanisms including secretion of pro-inflammatory cytokines, eicosanoids and induction of ROS. This example employed LPS to ascertain the extent of inflammation arising from ROS induced oxidation of H-AA versus D-AA in the lungs of mice. Specifically, four groups of mice were used. The first group was control mice treated with H-LA control mice. The second group of mice received a 6-week course of D-LA. It is understood that in vivo conversion of a portion of both H-LA and D-LA occurs to provide for AA and 13,13-D2-AA respectively. The third group of mice received a 6-week course of H-AA. The fourth group of mice received a 6-week course of D-AA. All groups then received a single intranasal administration of LPS to induce acute lung inflammation. The degree of the inflammatory response was based on the interalveolar septa distance where the larger the distance of the septa, the greater the degree of inflammation. The animals were sacrificed and the interalveolar septa distance was measured. Table 1 provides an average degree of spatial distance for the interalveolar septa for the results of all groups.

[4] = 6 or 8 weeks diet, compared to H-AA

[2H]C([2H])(/C=C\CCCCC)/C=C\C([2H])([2H])/C=C\C([2H])([2H])/C=C\CCCC(=O)O [D-AA, 7,7,10,10,13,13-D6-arachidonic acid] was tested, and the “LPS-induced interalveolar septa / wall thickening (in words)” value ([1]; 6-week diet, then single intranasal LPS) was “greater protective action”, the “alveolar spaces and thickness of interalveolar walls” value [1, 4] was “improved” and the endotoxin-induced peribronchial infiltration [1, 4] was “significantly decreased”. The “LPS-induced lung tissue damage, inflammation and emphysema (in words)” value ([1]; dietary consumption prior to LPS exposure) was “substantially mitigated; also recorded: substantially reduced”, the “LPS-induced perivascular edema as measured by alveolar wall thickness” value ([1]; female mice) was “almost negligible” and the “LPS-induced perivascular edema as measured by alveolar wall thickness” value ([1]; male mice) was “significantly milder effect”. The “inflammatory cell types in BAL, H-AA versus D-AA” value ([1]; regardless of gender and LPS treatment) was “No statistically significant differences”, the “alveolar lumen area and thickness versus controls” value ([2]; 6-week course, 15 mg/day, then single intranasal LPS) was “consistent with controls” and the “Alveolar lumen area (25%; 75%)” value ([2]; females) was 57.4 μm^2. The Partition thickness Me (25%; 75%) ([2]; females) was 3.6 µm, the “Alveolar lumen area (25%; 75%)” value ([2]; males) was 112.1 μm^2 and the Partition thickness Me (25%; 75%) ([2]; males) was 5.55 µm. The “protective / therapeutic effect compared to other deuterated PUFAs” value [2] was “best protective effect”, the “protective / therapeutic effect compared to other deuterated PUFAs” value ([2]; listed as D6-AA) was “better therapeutic effect” and the “Interalveolar space (average spatial distance for the interalveolar septa)” value ([3]; 6-week course, then single intranasal LPS) was 4.1 μm. The “reduction in the spatial distance for the interalveolar septa” value ([3]; D-LA relative to H-LA, comparator for D-AA not stated) was about 60%.
